From the OligoGym collection
“And” between values parts separate entries of the source, which are not always exact repeats. Equal entries are not always repeated. After the bases stand the sugars from the 5' end (letter, count) and the backbone: PS all phosphorothioate, else s phosphorothioate and o phosphodiester by linkage. Methylation of C is not given here. e = 2'-O-(2-methoxyethyl) (MOE); k = constrained ethyl (cEt); d = 2'-deoxy (DNA)

Molecular target: IRF4
Settings: ASO

Row | Sequence | target mRNA inhibition (MM.1R, 1 µM) | target mRNA inhibition (SK-MEL-28, 4 µM) [%] | further results
1 | GTCATGGGACATTGGT (sugars k3 d10 k3, PS) | 26% |  | 
2 | GTCCAGGTTGCTGGCG (sugars k3 d10 k3, PS) |  | 53 | 
3 | GTCCATGGGAGATCCG (sugars k3 d10 k3, PS) |  | 52 | 
4 | GTCCTGCTTGCCCGCG (sugars k4 d8 k4, PS) |  | 14 | 
5 | GTCTACATCTACTCCA (sugars k3 d10 k3, PS) |  | 38 | 
6 | GTCTACTGCTGTACTT (sugars k3 d10 k3, PS) |  | 52 | 
7 | GTCTCTCACGCAGTGC (sugars k3 d10 k3, PS) |  | 50 | 
8 | GTCTTAGGTGTTCAAG (sugars k3 d10 k3, PS) |  | 56 | 
9 | GTGAAACTGAGAGTGC (sugars k3 d10 k3, PS) |  | -20 | 
10 | GTGAACATGCCACTCA (sugars k3 d10 k3, PS) |  | 62 | 
11 | GTGACCCACATAACTC (sugars k3 d10 k3, PS) | 7% |  | 
12 | GTGACTTAATTCTGGG (sugars k3 d10 k3, PS) |  | 51 | 
13 | GTGACTTGCATCCATG (sugars k3 d10 k3, PS) | 62% |  | 
14 | GTGATGTCAGGTTTTC (sugars k2 d9 e3 k2, PS) | 38% |  | 
15 | GTGATGTCAGGTTTTC (sugars kddddddddddkekek, PS) | 22% |  | 
16 | GTGCACTCGCGCAAAG (sugars k3 d10 k3, PS) | -5% |  | 
17 | GTGCAGTTCCGTAGTC (sugars k3 d10 k3, PS) |  | 21 | 
18 | GTGCTCTTACAGCCTC (sugars k3 d10 k3, PS) | -15% |  | 
19 | GTGGCATCATGTAGTT (sugars k3 d10 k3, PS) |  | 27 | 
20 | GTGGGAGTCGGAGCTC (sugars k3 d10 k3, PS) |  | 17 | 
21 | GTGTCTAAAGTCCCAT (sugars kdddddddddkekeke, PS) | 5% |  | 
22 | GTGTCTAAAGTCCCAT (sugars kkdddddddddekeke, PS) | 32% and 23% |  | 
23 | GTGTCTAAAGTCCCAT (sugars kkdddddddddkdkdk, PS) | 20% and 5% |  | 
24 | GTGTGCTTGCCAAGCC (sugars kddddddddddkekek, PS) | 40% and 23% |  | 
25 | GTGTGCTTGCCAAGCC (sugars kkddddddddddkeke, PS) | 37% and 47% |  | 

Row | Sequence | target mRNA inhibition (MM.1R, 1 µM) | target mRNA inhibition (SK-MEL-28, 4 µM) [%] | further results
26 | GTGTGCTTGCCAAGCC (sugars kkdddddddddkdkdk, PS) | 59% |  | 
27 | GTGTGGCTGATCCGGG (sugars k3 d10 k3, PS) |  | 27 | 
28 | GTGTGTGCACTCGCGC (sugars k3 d10 k3, PS) | 19% |  | 
29 | GTGTTTGCCATGGTAT (sugars k3 d10 k3, PS) | 57% and 40% |  | target mRNA inhibition (MM.1R, 0.0625 µM): -1%; target mRNA inhibition (MM.1R, 0.25 µM): 13%; target mRNA inhibition (MM.1R, 4 µM): 70%
30 | GTGTTTGGTGGGAATC (sugars k3 d10 k3, PS) |  | 46 | 
31 | GTTAAAGGAGTGCAGG (sugars k3 d10 k3, PS) |  | -14 | 
32 | GTTAGCTACAAAGAGC (sugars k3 d10 k3, PS) |  | 41 | 
33 | GTTCAGAAACCCTCAT (sugars k3 d10 k3, PS) |  | 13 | 
34 | GTTGAAAGAACCAAGC (sugars k3 d10 k3, PS) |  | 11 | 
35 | GTTGGCACAATTCTCT (sugars k3 d10 k3, PS) | 22% and 16% |  | 
36 | GTTGGCTGGTCTTTGT (sugars kddddddddddkekek, PS) | 23% |  | 
37 | GTTGGCTGGTCTTTGT (sugars kkddddddddddkeke, PS) | 25% |  | 
38 | GTTGGCTGGTCTTTGT (sugars kkdddddddddkdkdk, PS) | 56% |  | 
39 | GTTGTAAATGAGTCGG (sugars kkdddddddddekeke, PS) | 48% |  | 
40 | GTTGTAAATGAGTCGG (sugars kkdddddddddkdkdk, PS) | 58% |  | target mRNA inhibition (MM.1R, 0.074 µM): 34%; target mRNA inhibition (MM.1R, 0.222 µM): 45%; target mRNA inhibition (MM.1R, 0.666 µM): 64%; target mRNA inhibition (MM.1R, 2 µM): 85%
41 | GTTGTCTGGCTAGCAG (sugars k4 d8 k4, PS) |  | 52 | target mRNA inhibition (SK-MEL-28, 0.185 µM): 6% and 4%; target mRNA inhibition (SK-MEL-28, 5 µM): 42% and 44% and 53%; target mRNA inhibition (SK-MEL-28, 15 µM): 62% and 65% and 83%
42 | GTTTATTTCCTACTCT (sugars k4 d8 k4, PS) |  | 44 | 
43 | GTTTGCCATGGTATTT (sugars k3 d10 k3, PS) | 41% and 50% |  | 
44 | TAAAACCTCATCCCCT (sugars k3 d10 k3, PS) |  | -26 | 
45 | TAAAACTGCGCTCTCT (sugars k3 d10 k3, PS) | -14% |  | 
46 | TAAAGAATGAGGGTCA (sugars k3 d10 k3, PS) |  | 45 | 
47 | TAAAGACCTTAACCAA (sugars k3 d10 k3, PS) |  | 30 | 
48 | TAACTGTATGGAACCC (sugars k3 d10 k3, PS) | 28% |  | 
49 | TAAGATCCCACGAAGG (sugars k3 d10 k3, PS) | 9% |  | 
50 | TAAGGCACTACTTCCA (sugars k3 d10 k3, PS) | 10% |  | 

Row | Sequence | target mRNA inhibition (MM.1R, 1 µM) | target mRNA inhibition (SK-MEL-28, 4 µM) [%] | further results
51 | TAATCTGTATCATGCA (sugars k3 d10 k3, PS) | 22% |  | 
52 | TAATTATGCAGAAGCT (sugars k3 d10 k3, PS) |  | -3 | 
53 | TACACCTCTTCACTAC (sugars k3 d10 k3, PS) | -18% |  | 
54 | TACATTGAGGCATACA (sugars k3 d10 k3, PS) |  | 41 | 
55 | TACCATGCATAGTGAT (sugars k3 d10 k3, PS) |  | 44 | 
56 | TACTAATTCCATAGAG (sugars k3 d10 k3, PS) |  | 26 | 
57 | TACTCACGAGCACCTC (sugars k3 d10 k3, PS) |  | 41 | 
58 | TACTGCTTGAGGTTTT (sugars e1 k2 d9 k2 e2, PS) | 6% |  | 
59 | TACTGCTTGAGGTTTT (sugars k3 d10 k3, PS) |  | 50 | 
60 | TACTGCTTGAGGTTTT (sugars kkddddddddddkeke, PS) | 11% |  | 
61 | TACTGTTACCGATGCT (sugars kkdddddddddekeke, PS) | 22% and 14% |  | 
62 | TACTTAGACATTACTA (sugars k3 d10 k3, PS) |  | 39 | 
63 | TAGAGGAATGGCGGAT (sugars k3 d10 k3, PS) |  | 45 | 
64 | TAGATCTGTGGTAATC (sugars k3 d10 k3, PS) | 20% and 6% |  | 
65 | TAGATTGTAGGACAGA (sugars k3 d10 k3, PS) |  | 28 | 
66 | TAGCAGGGCACGCTCT (sugars k3 d10 k3, PS) |  | 31 | 
67 | TAGGAAGTTTACTAAC (sugars k3 d10 k3, PS) |  | 36 | 
68 | TAGGTGCTTGTTGAAT (sugars k3 d10 k3, PS) |  | 50 | 
69 | TAGTAAATATCCTGTA (sugars k3 d10 k3, PS) |  | 42 | 
70 | TAGTAAGTTCTAGTCG (sugars k3 d10 k3, PS) | -13% |  | 
71 | TAGTTTTATGTTAGCC (sugars k3 d10 k3, PS) | 45% | 75 | target mRNA inhibition (MM.1R, 0.0625 µM): 4%; target mRNA inhibition (MM.1R, 0.074 µM): -1%; target mRNA inhibition (MM.1R, 0.222 µM): 4%; target mRNA inhibition (MM.1R, 0.25 µM): 18%; target mRNA inhibition (MM.1R, 0.666 µM): 22%; target mRNA inhibition (MM.1R, 2 µM): 39%; target mRNA inhibition (MM.1R, 4 µM): 78%
72 | TATACATTGAGGCATA (sugars k3 d10 k3, PS) | 7% |  | 
73 | TATATATGACGACTTA (sugars k3 d10 k3, PS) |  | 20 | 
